Test results reported in patent publication US10947252B2, “Inhibitors of KEAP1-Nrf2 protein-protein interaction” (Janssen Pharmaceutica NV, priority 2018, dated 2021).
Structures can show the parent of a compound that is named as a salt.

What was measured:
[1] = biological target: Kelch domain of human KEAP1 (321-624 aa) (Homo sapiens (Human), UniProt Q14145); experiment: KEAP1 KELCH ThermoFluor binding assay; conditions: KEAP Kelch […], 1,8-ANS, pH 7.0, average of results obtained, read-out: Tf Kd;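 also: Ligand-induced melting temperature shift of E. coli-expressed KEAP1 Kelch protein, Kd estimated from concentration-response curves of ΔTm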
Chain of Kelch domain of human KEAP1 (321-624 aa) (Q14145 321-624): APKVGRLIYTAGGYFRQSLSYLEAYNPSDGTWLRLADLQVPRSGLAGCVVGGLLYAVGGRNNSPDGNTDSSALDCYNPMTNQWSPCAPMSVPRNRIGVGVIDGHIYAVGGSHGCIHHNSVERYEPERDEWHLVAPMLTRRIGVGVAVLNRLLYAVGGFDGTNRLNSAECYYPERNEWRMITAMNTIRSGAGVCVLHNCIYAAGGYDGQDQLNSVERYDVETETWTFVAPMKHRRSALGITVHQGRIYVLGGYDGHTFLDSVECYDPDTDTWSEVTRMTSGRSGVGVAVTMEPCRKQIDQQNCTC

[2] = tested on: Glo-Response ARE-luc2P HEK293 cell line; experiment: ARE luciferase reporter cell-based assay; conditions: Homo sapiens, HEK293, 24 h, average of results obtained;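 also: luciferase signal tracks Nrf2 activation of the ARE once compounds disrupt KEAP1-Nrf2 binding, read with One-Glo reagent, DMSO serving as low control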
Procedure: The ARE assay utilizes a luciferase reporter cell line where the signal is proportional to NrF2 activation of the ARE. The cell line is commercially available from Promega and was prepared by stably transfecting HEK293 cells with a vector (pGL4.11) which contains the ARE response element upstream of a minimal promoter. The promoter drives expression of luc2 firefly luciferase gene. Upon disruption of KEAP1-Nrf2 binding by compound, Nrf2 translocates into the nucleus where it binds to the ARE and activates transcription of luciferase.
The materials used in this ARE assay are as follows: Glo-Response ARE-luc2P HEK293 cell line and One-Glo Luciferase Assay System were purchased from Promega (Madison, Wis.). Dulbecco's Modified Eagle medium ((DMEM), low glucose, GlutaMAX, pyruvate), fetal bovine serum (certified, heat inactivated), hygromycin B, Dulbecco's phosphate-buffered saline were purchased from Life Technologies (Grand Island, N.Y.). Penicillin, streptomycin solution (100×) and 0.05% trypsin-EDTA were purchased from Corning (Manassas, Va.). DMSO was purchased from EMD Millipore.
The ARE assay protocol is as follows: cells were maintained in growth medium (DMEM+10% FBS, 200 μg/mL hygromycin B, p-s) between 20-90% confluency by splitting twice per week. One day before the assay, cells were trypsinized, counted to determine viable cell count, and re-suspended in assay medium (DMEM+10% FBS, p-s) at 250,000 cells/mL. […] 100% DMSO was used as the low control. A 11-point dose series of the control compound was included on every plate. Compounds were spotted to an intermediate plate (Greiner #781280 V-bottom 384 well plate) using the Echo acoustic dispenser (Labscyte San Jose, Calif.). Spot size was 240 nL.
On the day of the assay, 60 mL per well of assay medium was added to the pre-spotted plate to make 2× compound stocks using the Combi (Thermo Waltham, Mass.). Compound and medium were mixed on the Janus and 20 mL of 2×compound stock was added to the cell plate which already contained 20 mL of assay medium from cell plating. […] The plates were returned to the tissue culture incubator for 24 hours.
The next day, luciferase activity was measured according to the manufacturer's protocol for One-Glo luciferase reagent. The plates were removed from the incubator and allowed to equilibrate to room temperature for 30 min. Forty microliters of One-Glo reagent (equilibrated to room temperature) was added per well using the Combi. The plates were mixed on an orbital shaker for 3 min. Luminescence was read on the BMG Pherastar multiplate reader (Cary, N.C.) using the luminescence protocol (1 sec interval).
The dose-response data were analyzed in Genedata Screener using 4PL nonlinear regression model. Raw luminescence counts as well as normalized values were used for data analysis.

| SMILES | Kd [1] [µM] | EC50 [2] [µM] |
| --- | --- | --- |
| CC[C@@H]1CN(Cc2cc(C(CC(=O)O)c3cc(OC(F)F)c4c(c3)nnn4C)ccc2C)S(=O)(=O)c2cccnc2O1 (mixture of isomers) [Example 249, 3-(7-(Difluoromethoxy)-1-methyl-1H-benzo[d][1,2,3]triazol-5-yl)-3-(3-(((R)-4-ethyl-1,1-dioxido-3,4-dihydro-2H-pyrido[2,3-b][1,4,5]oxathiazepin-2-yl)methyl)-4-methylphenyl)propanoic Acid and its Trifluoroacetic Acid Salt] | < 0.001 | 0.0286 |
| Cc1ccc([C@H](CC(=O)O)c2ccn3c(C(F)(F)F)nnc3c2C)cc1CN1C[C@@H]2CCN2c2ncccc2S1(=O)=O (single isomer, unassigned) [Example 292, (*S)-3-(3-(((*S)-5,5-Dioxido-7,7a,8,9-tetrahydro-6H-azeto[2,1-d]pyrido[2,3-f][1,2,5]thiadiazepin-6-yl)methyl)-4-methylphenyl)-3-(8-methyl-3-(trifluoromethyl)-[1,2,4]triazolo[4,3-a]pyridin-7-yl)propanoic Acid] | < 0.001 | 0.0683 |
| Cc1ccc([C@H](CC(=O)O)c2ccn3c(C(F)(F)F)nnc3c2C)cc1CN1CC(C)(C)Oc2ccccc2S1(=O)=O (single isomer, unassigned) [Example 284, 3-(3-((4,4-Dimethyl-1,1-dioxido-3,4-dihydro-2H-benzo[b][1,4,5]oxathiazepin-2-yl)methyl)-4-methylphenyl)-3-(8-methyl-3-(trifluoromethyl)-[1,2,4]triazolo[4,3-a]pyridin-7-yl)propanoic Acid] | 0.00165 | 0.213 |
| Cc1ccc([C@H](c2ccn3c(C(F)(F)F)nnc3c2C)C(C)(C)C(=O)O)cc1CN1CC2(CCOCC2)Oc2nc(NCCN3CCNCC3)c(C)cc2S1(=O)=O (single isomer, unassigned) [Example 366] | < 0.001 | 0.407 |
| Cc1ccc([C@H](CC(=O)O)c2cc(OC3CC3)c3c(c2)nnn3C)cc1CN1C[C@H]2CCCN2c2ncccc2S1(=O)=O (single isomer, unassigned) [Example 5, (*S)-3-(7-Cyclopropoxy-1-methyl-1H-benzo[d][1,2,3]triazol-5-yl)-3-(3-(((R)-5,5-dioxido-7a,8,9,10-tetrahydropyrido[2,3-f]pyrrolo[2,1-d][1,2,5]thiadiazepin-6(7H)-yl)methyl)-4-methylphenyl)propanoic Acid] | 0.000518 | 0.11 |
| Cc1ccc([C@H](c2ccn3c(C(F)F)nnc3c2C)C(C)(C)C(=O)O)cc1CN1CC2(CCOCC2)Oc2ncccc2S1(=O)=O (single isomer, unassigned) [Example 54, (*R)-3-(3-(Difluoromethyl)-8-methyl-[1,2,4]triazolo[4,3-a]pyridin-7-yl)-3-(3-((1′,1′-dioxido-2,3,5,6-tetrahydrospiro[pyran-4,4′-pyrido[2,3-b][1,4,5]oxathiazepin]-2′(3′H)-yl)methyl)-4-methylphenyl)-2,2-dimethylpropanoic Acid] | 1.79 | 0.956 |

Continued, in another order:

| Kd [1] [µM] | SMILES | EC50 [2] [µM] |
| --- | --- | --- |
| 1.82 | Cc1cnc([C@H](c2ccn3c(C(F)F)nnc3c2C)C(C)(C)C(=O)O)cc1CN1CC2(CCOCC2)Oc2nc(OCCN3CCCC3)c(C)cc2S1(=O)=O (single isomer, unassigned) [Example 639, (*R)-3-(3-(Difluoromethyl)-8-methyl-[1,2,4]triazolo[4,3-a]pyridin-7-yl)-2,2-dimethyl-3-(5-methyl-4-((8′-methyl-1′,1′-dioxido-7′-(2-(pyrrolidin-1-yl)ethoxy)-2,3,5,6-tetrahydrospiro[pyran-4,4′-pyrido[2,3-b][1,4,5]oxathiazepin]-2′(3′H)-yl)methyl)pyridin-2-yl)propanoic Acid] | 5.17 |
| 0.119 | Cc1cc2cc([C@@H](CC(=O)O)c3ccc(C)c(CN4C[C@H]5CCCN5c5ncccc5S4(=O)=O)c3)n(C)c2nn1 (single isomer, unassigned) [Example 435, (*S)-3-(3,7-Dimethyl-7H-pyrrolo[2,3-c]pyridazin-6-yl)-3-(3-(((R)-5,5-dioxido-7a,8,9,10-tetrahydropyrido[2,3-f]pyrrolo[2,1-d][1,2,5]thiadiazepin-6(7H)-yl)methyl)-4-methylphenyl)propanoic Acid] | > 20 |
| 15.4 | Cc1cc2c(nc1OCCN1CCCC1)OC1(CC1)CN(Cc1cc([C@H](c3ccc4c(nnn4C4CC4)c3C)C(C)(C)C(=O)O)cnc1C)S2(=O)=O (single isomer, unassigned) [Example 628, (*S)-3-(1-Cyclopropyl-4-methyl-1H-benzo[d][1,2,3]triazol-5-yl)-2,2-dimethyl-3-(6-methyl-5-((8′-methyl-1′,1′-dioxido-7′-(2-(pyrrolidine-1-yl)ethoxy)spiro[cyclopropane-1,4′-pyrido[2,3-b][1,4,5]]oxathiazepin]-2′(3′H)-yl)methyl)pyridine-3-yl)propanoic Acid] | > 20 |
| < 0.001 | Cc1ccc([C@@H](c2ccn3c(C(F)(F)F)nnc3c2C)C(C)(C)C(=O)O)cc1CN1CC2(COC2)Oc2ncccc2S1(=O)=O (single isomer, unassigned) [Example 615, (*S)-3-(3-((1′,1′-dioxidospiro[oxetane-3,4′-pyrido[2,3-b][1,4,5]oxathiazepin]-2′(3′H)-yl)methyl)-4-methylphenyl)-2,2-dimethyl-3-(8-methyl-3-(trifluoromethyl)-[1,2,4]triazolo[4,3-a]pyridine-7-yl)propanoic Acid] | 0.00109 |
| 0.00261 | Cc1ccc([C@@H](CC(=O)O)c2ccn3c(C(F)F)nnc3c2C)cc1CN1C[C@]2(C)CCCN2c2ncccc2S1(=O)=O (single isomer, unassigned) [Example 477, (*R)-3-(3-(Difluoromethyl)-8-methyl-[1,2,4]triazolo[4,3-a]pyridin-7-yl)-3-(4-methyl-3-(((*S)-7a-methyl-5,5-dioxido-7a,8,9,10-tetrahydropyrido[2,3-f]pyrrolo[2,1-d][1,2,5]thiadiazepin-6(7H)-yl)methyl)phenyl)propanoic Acid] | 1.68 |
| 18.4 | Cc1cnc2c(c1)S(=O)(=O)N(Cc1cc([C@H](c3ccc4c(nnn4C4CC4)c3C)C(C)(C)C(=O)O)cnc1C)CC1(COC1)O2 (single isomer, unassigned) [Example 624, (*S)-3-(1-Cyclopropyl-4-methyl-1H-benzo[d][1,2,3]triazol-5-yl)-2,2-dimethyl-3-(6-methyl-5-((8′-methyl-1′,1′-dioxidospiro[oxetane-3,4′-pyrido[2,3-b][1,4,5]]oxathiazepin]-2′(3′H)-yl)methyl)pyridine-3-yl)propanoic Acid] | 3.66 |
| < 0.001 | Cc1ccc([C@@H](c2ccn3c(C(F)(F)F)nnc3c2C)C(C)(C)C(=O)O)nc1CN1CC2(CC2)Oc2nc(OCCN3CCCC3)c(C)cc2S1(=O)=O (single isomer, unassigned) [Example 634, (*S)-2,2-Dimethyl-3-(8-methyl-3-(trifluoromethyl)-[1,2,4]triazolo[4,3-a]pyridin-7-yl)-3-(5-methyl-6-((8′-methyl-1′,1′-dioxido-7′-(2-(pyrrolidin-1-yl)ethoxy)spiro[cyclopropane-1,4′-pyrido[2,3-b][1,4,5]oxathiazepin]-2′(3′H)-yl)methyl)pyridin-2-yl)propanoic Acid] | 0.00953 |
